The source of these data is US10731159B2, “Cationic lipid” (DAIICHI SANKYO COMPANY, LIMITED, priority 2013, dated 2020).

Data set [1] can be described thus: Ratio of polynucleotide/mRNA to lipid (wt/wt). Format: physicochemical. As to conditions: Example 57: PLK1424-2/A siRNA, DPPC:Chol:LP:PEG-C-DSA=7:33.5:57:2.5, N/P 3. As for the experimental part: The nucleic acid lipid particle dispersion was mixed with acetonitrile and chloroform at a ratio of 1:1:1 and centrifuged at 15,000 rpm for 2 minutes. Then, the aqueous layer obtained as an upper layer was recovered, followed by the extraction of the double-stranded polynucleotide. The amount of the double-stranded polynucleotide in the sample was measured by ion-exchange chromatography (system: Agilent 1100 series, column: TSKgel DEAE-2SW (2.6×150 mm) (Tosoh Corp), buffer A: 20% acetonitrile, buffer B: 20% acetonitrile and 1.6 M ammonium formate, gradient (B %): 30-55% (0-20 min), flow rate: 1 mL/min, temperature: 40° C., detection: 260 nm).
The amount of the phospholipid in the nucleic acid lipid particle dispersion was measured using Phospholipid C-Test Wako (Wako Pure Chemical Industries Ltd.) according to the attached document. Specifically, the phospholipid in the sample was quantified in the presence of a 1% Triton X-100 detergent.
The amounts of cholesterol and LP in the nucleic acid lipid particle dispersion were measured by reverse-phase chromatography (system: Agilent 1100 series, column: Chromolith Performance RP-18 endcapped 100-3 monolithic HPLC-column (Merck), buffer A: 0.01% trifluoroacetic acid, buffer B: 0.01% trifluoroacetic acid and methanol, gradient (B %): 87-92% (0-10 min), flow rate: 2 mL/min, temperature: 50° C., detection: 205 nm).
The total amount of lipids was calculated from the amount of the phospholipid and the compositional ratio of lipid components constituting the liposome, and the ratio of the polynucleotide to the lipid was calculated from the aforementioned amount of the polynucleotide and the total amount of lipids according to the following expression: [Double-stranded polynucleotide concentration]/[Total lipid concentration] (wt/wt)
The total amount of lipids was calculated from the amount of the phospholipid, the amount of cholesterol, and the amount of LP, and the compositional ratio of lipid components constituting the liposome, and the ratio of the polynucleotide to the lipid was calculated from the aforementioned amount of the polynucleotide and the total amount of lipids according to the following expression: [Double-stranded polynucleotide concentration]/[Total lipid concentration] (wt/wt)
The amount of the double-stranded polynucleotide in a sample from the nucleic acid lipid particle dispersion was measured in the presence of a 5% Triton X-100 detergent by ion-exchange chromatography (system: Agilent 1100 series, column: DNAPac PA200 (4×250 mm) (Thermo Fisher Scientific K.K.), buffer A: 10 mM Tris, 25 mM sodium perchlorate, and 20% ethanol, pH 7.0, buffer B: 10 mM Tris, 250 mM sodium perchlorate, and 20% ethanol, pH 7.0, gradient (B %): 20-70% (0-15 min), flow rate: 0.5 mL/min, temperature: 40° C., detection: 260 nm).
The amounts of cholesterol and LP in the nucleic acid lipid particle dispersion were measured by reverse-phase chromatography (system: Agilent 1100 series, column: Chromolith Performance RP-18 endcapped 100-3 monolithic HPLC-column (Merck), buffer A: 0.01% trifluoroacetic acid, buffer B: 0.01% trifluoroacetic acid and methanol, gradient (B %): 82-92% (0-10 min), flow rate: 2 mL/min, temperature: 50° C., detection: 205 nm).
The total amount of lipids was calculated from the amount of the phospholipid, the amount of cholesterol, and the amount of LP, and the compositional ratio of lipid components constituting the liposome, and the ratio of the mRNA to the lipid was calculated from the “amount of the mRNA in the presence of the detergent” of the preceding paragraph (2) according to the following expression: [mRNA concentration in the presence of the detergent]/[Total lipid concentration] (wt/wt)

Data set [2] is described as follows: Rate of encapsulation of polynucleotide/mRNA (Quant-iT RiboGreen, with and without Triton X-100). As to conditions: Example 57: PLK1424-2/A siRNA, DPPC:Chol:LP:PEG-C-DSA=7:33.5:57:2.5, N/P 3. Format: physicochemical. As for the experimental part:
The rate of encapsulation of the double-stranded polynucleotide was measured using Quant-iT RiboGreen RNA Assay kit (Invitrogen Corp.) according to the attached document.
Specifically, the double-stranded polynucleotide in the nucleic acid lipid particle dispersion was quantified in the presence and absence of a 0.015% Triton X-100 detergent, and the rate of encapsulation was calculated according to the following expression: {[Amount of the double-stranded polynucleotide in the presence of the detergent]−[Amount of the double-stranded polynucleotide in the absence of the detergent]}/[Amount of the double-stranded polynucleotide in the presence of the detergent]}×100(%) (3) Ratio of Double-Stranded Polynucleotide to Lipid
The rate of encapsulation of the mRNA was measured using Quant-iT RiboGreen RNA Assay kit (Invitrogen Corp.) according to the attached document.
Specifically, the mRNA in the nucleic acid lipid particle dispersion was quantified in the presence and absence of a 0.015% Triton X-100 detergent, and the rate of encapsulation was calculated according to the following expression: {[Amount of the mRNA in the presence of the detergent]−[Amount of the mRNA in the absence of the detergent]}/[Amount of the mRNA in the presence of the detergent]}×100(%) (3) Ratio of mRNA to Lipid

Data set [3] can be described thus: Average particle size of nucleic acid lipid particle (NICOMP 380ZLS). It counts as physicochemical. As to conditions: Example 57: PLK1424-2/A siRNA, DPPC:Chol:LP:PEG-C-DSA=7:33.5:57:2.5, N/P 3; ± deviation. Here is the method:
The particle size of the liposome was measured using Zeta Potential/Particle Sizer NICOMP™ 380ZLS (Particle Sizing Systems, LLC). In the tables, the average particle size is indicated by a volume-average particle size, and the numeric value following ±represents a deviation.

In the next data set the test system is human PLK-1 gene. Nature of the data set: Test Example 10: PLK-1 expression inhibition in Hep3B tumor of nude mice. Format: in vivo. As to conditions: nude mice with subcutaneous Hep3B tumor, i.v. 1 mg/kg and 3 mg/kg, tumor collected the day after administration; particles of Example 57. Here is the method:
After acclimatization and raising of each nude mouse (CAnN.Cg-Foxn1[nu]/CrlCrlj[Foxn1nu/Foxn1nu]) for 8 days, cultured human Hep3B cells (1×10^7 cells/mouse) were subcutaneously transplanted to the right lateral region of the mouse. 19 days after the tumor transplantation, the mice were grouped with the tumor volume as an index, and, on the next day, the nucleic acid lipid particle-containing dispersion prepared in Example 57 was intravenously administered (administered at doses of 1 mg/kg and 3 mg/kg) to the tail of each mouse. PBS was administered to a control group. On the day after the administration of the nucleic acid lipid particle, a tumor mass was collected from the cancer-bearing mouse, and a nucleic acid was extracted using QIAzol Lysis Reagent (manufactured by Qiagen N.V.) and chloroform. Then, total RNA was purified using QIAGNE RNeasy Plus Mini kit (manufactured by Qiagen N.V.) according to the attached protocol.
16 μL of the purified RNA and 4 μL of SuperScript VILO Master mix (Life Technologies, Inc.) were mixed and used in RT reaction under conditions given below.
RT reaction: 25° C. for 10 min • 42° C. for 60 min • 85° C. for 5 min. […]
The quantitative analysis was conducted by the ΔΔCt method. A value (ΔΔCt) was determined by subtracting ΔCt of the PBS administration group from the difference in Ct value (ΔCt) between human PLK-1 and human GAPDH in the administration group of each nucleic acid lipid particle, and a relative value (RQ) to the PBS administration group, RQmax, and RQmin were calculated according to the following expressions: RQ=2^−ΔΔCt RQmax=2^−95% CI of ΔΔCt (95% CI of ΔΔCt: the maximum value of 95% confidence interval of ΔΔCt) RQmin=2^−95% CI of ΔΔCt (95% CI of ΔΔCt: the minimum value of 95% confidence interval of ΔΔCt)
In the diagram, error bars were calculated according to the following expression: +error bars:RQmax−RQ,−error bars:RQ−RQmin)

`CCCCCCCCCCCCCCCCCCCC(CCCCCCCCCC)OC(=O)OCCCN(C)C` (stereo not drawn) [Example 45, 3-(Dimethylamino)propyl triacontan-11-yl Carbonate]: the “Ratio of polynucleotide to lipid siRNA/lipid” value in data set [1] turned out to be 0.093 wt/wt. The “Rate of polynucleotide encapsulation” value in data set [2] is listed as 96%. Also, in data set [3], the Average particle size turned out to be 100 ± 27 nm. Also, the “PLK-1 expression inhibitory activity in tumor (in words, FIG. 5)” value with human PLK-1 gene is listed as “strong PLK-1 expression inhibitory activity”.
Taken in the same sequence, the figures for `CCCCC/C=C\C/C=C\CCCCCCCCC(COCCCCCCCC/C=C\C[C@@H](CCCCCC)OC(C)=O)OC(=O)OCCCN(C)C` (stereo partly drawn) [Example 54, (20,23R)-2-Methyl-9-[(9Z,12Z)-octadeca-9,12-dien-1-yl]-7-oxo-6,8,11-trioxa-2-azanonacos-20-en-23-yl Acetate] were 0.078 wt/wt, 98%, 127 ± 29 nm and “strong PLK-1 expression inhibitory activity”.
As to `CCCCCCCCCCCCCCCCCC(CCCCCCCCCC)OC(=O)OCCCN(C)C` (stereo not drawn) [Example 19, 3-(Dimethylamino)propyloctacosan-11-yl Carbonate], the “Ratio of polynucleotide to lipid siRNA/lipid” value in data set [1] is recorded as 0.095 wt/wt. The “Rate of polynucleotide encapsulation” value in data set [2] is reported as 97%. This compound also showed an Average particle size in data set [3] of 103 ± 16 nm. Also, the “PLK-1 expression inhibitory activity in tumor (in words, FIG. 5)” value with human PLK-1 gene was “strong PLK-1 expression inhibitory activity”.
